The source of these data is ChEMBL document CHEMBL5724914, “Linking interpersonal differences in gut microbiota composition and drug biotransformation activity” (2024).

The nature of data set [1]: The drug is tested on WLS-039 corresponding to human gut metagenome with ENA study accession number: PRJEB37062 and ENA sample accession number: ERS12561746 for biotransformation under anaerobic condition. The drug concentrations were measured over 9 timepoints collected between 0 and 24 hours of incubation by liquid-chromatography-coupled mass spectrometry (LC–MS). The conditions noted are these: 2 µM.

Data set [2] in a line: The drug is tested on WLS-086 corresponding to human gut metagenome with ENA study accession number: PRJEB37062 and ENA sample accession number: ERS12561752 for biotransformation under anaerobic condition. The drug concentrations were measured over 9 timepoints collected between 0 and 24 hours of incubation by liquid-chromatography-coupled mass spectrometry (LC–MS). The following applies: 2 µM.

The conditions of data set [3]: human gut metagenome, 24 h, 2 µM.
For data set [4] the following is noted: human gut metagenome, 24 h, 2 µM. This is another data set of the same source.
The conditions of data set [5]: human gut metagenome, 24 h, 2 µM. The source holds these as a separate data set.
A short description of data set [6]: The drug is tested on Z-024 corresponding to pig gut metagenome with ENA study accession number: PRJEB37062 and ENA sample accession number: ERS12561823 for biotransformation under anaerobic condition. The drug concentrations were measured over 9 timepoints collected between 0 and 24 hours of incubation by liquid-chromatography-coupled mass spectrometry (LC–MS). The conditions noted are these: 2 µM.

For data set [7] the following is noted: human gut metagenome, 24 h, 2 µM. The source holds these as a separate data set.
Data set [8] in a line: The drug is tested on Z-025 corresponding to rabbit gut metagenome with ENA study accession number: PRJEB37062 and ENA sample accession number: ERS12561824 for biotransformation under anaerobic condition. The drug concentrations were measured over 9 timepoints collected between 0 and 24 hours of incubation by liquid-chromatography-coupled mass spectrometry (LC–MS). The conditions noted are these: 2 µM.

Data set [9] is described as follows: The drug is tested on WLS-350 corresponding to human gut metagenome with ENA study accession number: PRJEB37062 and ENA sample accession number: ERS12561789 for biotransformation under anaerobic condition. The drug concentrations were measured over 9 timepoints collected between 0 and 24 hours of incubation by liquid-chromatography-coupled mass spectrometry (LC–MS). The conditions noted are these: 2 µM.

The nature of data set [10]: The drug is tested on Z-022 corresponding to mouse gut metagenome with ENA study accession number: PRJEB37062 and ENA sample accession number: ERS12561821 for biotransformation under anaerobic condition. The drug concentrations were measured over 9 timepoints collected between 0 and 24 hours of incubation by liquid-chromatography-coupled mass spectrometry (LC–MS). The following applies: 2 µM.

The nature of data set [11]: The drug is tested on WLS-069 corresponding to human gut metagenome with ENA study accession number: PRJEB37062 and ENA sample accession number: ERS12561748 for biotransformation under anaerobic condition. The drug concentrations were measured over 9 timepoints collected between 0 and 24 hours of incubation by liquid-chromatography-coupled mass spectrometry (LC–MS). The following applies: 2 µM.

Data set [12] can be described thus: The drug is tested on Z-003 corresponding to pig gut metagenome with ENA study accession number: PRJEB37062 and ENA sample accession number: ERS12561803 for biotransformation under anaerobic condition. The drug concentrations were measured over 9 timepoints collected between 0 and 24 hours of incubation by liquid-chromatography-coupled mass spectrometry (LC–MS). The following applies: 2 µM.

For data set [13] the following is noted: human gut metagenome, 24 h, 2 µM. This is another data set of the same source.
Data set [14] can be described thus: The drug is tested on Z-021 corresponding to metagenome with ENA study accession number: PRJEB37062 and ENA sample accession number: ERS12561820 for biotransformation under anaerobic condition. The drug concentrations were measured over 9 timepoints collected between 0 and 24 hours of incubation by liquid-chromatography-coupled mass spectrometry (LC–MS). The conditions noted are these: 2 µM.

A short description of data set [15]: The drug is tested on WLS-038 corresponding to human gut metagenome with ENA study accession number: PRJEB37062 and ENA sample accession number: ERS12561745 for biotransformation under anaerobic condition. The drug concentrations were measured over 9 timepoints collected between 0 and 24 hours of incubation by liquid-chromatography-coupled mass spectrometry (LC–MS). The conditions noted are these: 2 µM.

For data set [16] the following is noted: human gut metagenome, 24 h, 2 µM. This is another data set of the same source.
The nature of data set [17]: The drug is tested on WLS-240 corresponding to human gut metagenome with ENA study accession number: PRJEB37062 and ENA sample accession number: ERS12561773 for biotransformation under anaerobic condition. The drug concentrations were measured over 9 timepoints collected between 0 and 24 hours of incubation by liquid-chromatography-coupled mass spectrometry (LC–MS). The following applies: 2 µM.

For data set [18] the following is noted: human gut metagenome, 24 h, 2 µM. This is another data set of the same source.
The conditions of data set [19]: human gut metagenome, 24 h, 2 µM. This is another data set of the same source.
Data set [20] is described as follows: The drug is tested on WLS-077 corresponding to human gut metagenome with ENA study accession number: PRJEB37062 and ENA sample accession number: ERS12561750 for biotransformation under anaerobic condition. The drug concentrations were measured over 9 timepoints collected between 0 and 24 hours of incubation by liquid-chromatography-coupled mass spectrometry (LC–MS). The following applies: 2 µM.

Molecules are shown by their SMILES.
Also: call rule not given here.

As for `COc1ccc2[nH]c([S+]([O-])Cc3ncc(C)c(OC)c3C)nc2c1` (stereo not given) [OMEPRAZOLE], the “Bacterial Biotransformation” value in data set [1] is recorded as “Compound metabolized”; in data set [2], “Compound metabolized”; in [3] it was “Compound metabolized”; in data set [4], “Compound metabolized”; in data set [5] it was “Compound metabolized”; in data set [6], “Compound NOT metabolized”. The “Bacterial Biotransformation” value was “Compound metabolized” in [7]; “Compound metabolized” in data set [8]; “Compound metabolized” in data set [9]; “Compound NOT metabolized” in [10]; “Compound metabolized” in [11]; “Compound NOT metabolized” in data set [12]. Moreover, the “Bacterial Biotransformation” value is on record as “Compound metabolized” in data set [13]; “Compound NOT metabolized” in data set [14]; “Compound metabolized” in data set [15]; “Compound metabolized” in [16]; “Compound metabolized” in [17]; “Compound metabolized” in data set [18]. Besides, the “Bacterial Biotransformation” value in [19] and in data set [20] was “Compound metabolized” in each case.

As to `O=C(O)CCc1nc(-c2ccccc2)c(-c2ccccc2)o1` [OXAPROZIN], the “Bacterial Biotransformation” value in data set [1] is reported as “Compound metabolized”; in [2] it was “Compound metabolized”; in [3], “Compound metabolized”; in data set [4] it was “Compound metabolized”; in [5], “Compound metabolized”; in data set [6] it was “Compound NOT metabolized”. Besides, the “Bacterial Biotransformation” value in data set [7], in data set [8], in data set [9], in [10], in data set [11] and in data set [12] was “Compound metabolized” in each case. Moreover, the “Bacterial Biotransformation” value in [13], in [14], in [15], in data set [16], in data set [17] and in data set [18] was “Compound metabolized” in each case. Also, the “Bacterial Biotransformation” value in data set [19] and in data set [20] was “Compound metabolized” in each case.

With `CC(C)(C)NC[C@H](O)COc1ccccc1C1CCCC1.CC(C)(C)NC[C@H](O)COc1ccccc1C1CCCC1.O=S(=O)(O)O` [PENBUTOLOL SULFATE], the “Bacterial Biotransformation” value in data set [1], in data set [2], in data set [3], in data set [4], in data set [5] and in [6] was “Compound metabolized” each time. In addition, the “Bacterial Biotransformation” value in [7] is given as “Compound metabolized”; in data set [8] it was “Compound NOT metabolized”; in data set [9], “Compound metabolized”; in data set [10], “Compound metabolized”; in data set [11] it was “Compound metabolized”; in data set [12], “Compound metabolized”. For the same compound, the “Bacterial Biotransformation” value was “Compound metabolized” in data set [13]; “Compound metabolized” in data set [14]; “Compound metabolized” in data set [15]; “Compound metabolized” in data set [16]; “Compound metabolized” in data set [17]; “Compound NOT metabolized” in data set [18]. For the same compound, the “Bacterial Biotransformation” value in [19] and in data set [20] was “Compound metabolized” in each case.

As to `CCOc1ccc(NC(C)=O)cc1` [PHENACETIN], the “Bacterial Biotransformation” value in data set [1], in [2], in [3], in [4], in data set [5] and in data set [6] was “Compound NOT metabolized” in each case. The “Bacterial Biotransformation” value in data set [7], in data set [8], in [9], in data set [10], in data set [11] and in data set [12] was “Compound NOT metabolized” throughout. Moreover, the “Bacterial Biotransformation” value in data set [13], in data set [14], in [15], in [16], in data set [17] and in data set [18] was “Compound NOT metabolized” in each case. The “Bacterial Biotransformation” value in [19] and in data set [20] was “Compound NOT metabolized” throughout.

For `Nc1ccc(/N=N/c2ccccc2)c(N)n1` [PHENAZOPYRIDINE], the “Bacterial Biotransformation” value in [1], in data set [2], in [3], in [4], in data set [5] and in data set [6] was “Compound metabolized” in each case. For the same compound, the “Bacterial Biotransformation” value in data set [7], in data set [8], in [9], in [10], in data set [11] and in data set [12] was “Compound metabolized” each time. The “Bacterial Biotransformation” value in [13], in [14], in [15], in data set [16], in [17] and in data set [18] was “Compound metabolized” throughout. For the same compound, the “Bacterial Biotransformation” value in data set [19] and in [20] was “Compound metabolized” each time.

In the case of `CC(C(=O)O)c1ccc2c(c1)Cc1cccnc1O2` (stereo not given) [PRANOPROFEN], the “Bacterial Biotransformation” value in data set [1] is “Compound metabolized”; in data set [2], “Compound metabolized”; in [3], “Compound metabolized”; in data set [4], “Compound metabolized”; in data set [5], “Compound metabolized”; in data set [6], “Compound NOT metabolized”. The “Bacterial Biotransformation” value in data set [7], in data set [8], in data set [9], in [10], in data set [11] and in data set [12] was “Compound metabolized” in each case. The “Bacterial Biotransformation” value in [13], in data set [14], in [15], in [16], in data set [17] and in data set [18] was “Compound metabolized” in each case. The “Bacterial Biotransformation” value in data set [19] and in data set [20] was “Compound metabolized” each time.
